Laboratory results: the supplement of paper PMC10307832

Key:
Assay in all cases: relative viability (nuclei count vs DMSO), 5 days (fraction); higher = more cells survive
NCI-H1666 = tested on: NCI-H1666
Summary of the method: (§1)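 Lung cancer cell lines in 1536-well plates got either a single drug or a fixed anchor-drug dose together with five library-drug doses (not always all listed) in √10 steps, by pin tool, on the day after seeding. Nuclei were counted after 5 days, and relative viability is the treated-to-vehicle ratio of nuclei counts. Values are medians of duplicate plates.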

NCI-H1993 = tested on: NCI-H1993
Summary of the method: as §1

NCI-H2085 = tested on: NCI-H2085
Summary of the method: as §1

NCI-H2170 = tested on: NCI-H2170
Summary of the method: as §1

NCI-H2228 = tested on: NCI-H2228
Summary of the method: as §1

NCI-H2342 = tested on: NCI-H2342
Summary of the method: as §1

NCI-H2347 = tested on: NCI-H2347
Summary of the method: as §1

NCI-H23 = tested on: NCI-H23
Summary of the method: as §1

NCI-H322M = tested on: NCI-H322M
Summary of the method: as §1

NCI-H520 = tested on: NCI-H520
Summary of the method: as §1

NCI-H647 = tested on: NCI-H647
Summary of the method: as §1

NCI-H661 = tested on: NCI-H661
Summary of the method: as §1

NCI-H838 = tested on: NCI-H838
Summary of the method: as §1

For `CCCCCCCCCCCC1=C(O)C(=O)C=C(O)C1=O` [Embelin] + N=C(N)NC(=N)NCCc1ccccc1 [Phenformin] (partner 250 µM), the relative viability (NCI-H1666; first compound 2.53 µM) was 0.507, the relative viability (NCI-H1666; first compound 8 µM) was 0.575 and the relative viability (NCI-H1993; first compound 0.08 µM) was 0.499. It also gave a relative viability (NCI-H1993; first compound 0.8 µM) of 0.542, a relative viability (NCI-H1993; first compound 2.53 µM) of 0.489 and a relative viability (NCI-H1993; first compound 8 µM) of 0.467. For the same compound, the relative viability (NCI-H2085; first compound 0.08 µM) was 0.708, the relative viability (NCI-H2085; first compound 0.8 µM) was 0.884 and the relative viability (NCI-H2085; first compound 2.53 µM) was 0.73. For the same compound, the relative viability (NCI-H2085; first compound 8 µM) was 0.664, the relative viability (NCI-H2170; first compound 0.08 µM) was 0.438 and the relative viability (NCI-H2170; first compound 0.8 µM) was 0.489. The relative viability (NCI-H2170; first compound 2.53 µM) was 0.427, the relative viability (NCI-H2170; first compound 8 µM) was 0.444 and the relative viability (NCI-H2228; first compound 0.08 µM) was 0.332. It also gave a relative viability (NCI-H2228; first compound 0.8 µM) of 0.314, a relative viability (NCI-H2228; first compound 2.53 µM) of 0.403 and a relative viability (NCI-H2228; first compound 8 µM) of 0.309. It also gave a relative viability (NCI-H2342; first compound 0.08 µM) of 0.594, a relative viability (NCI-H2342; first compound 0.8 µM) of 0.551 and a relative viability (NCI-H2342; first compound 2.53 µM) of 0.701. The relative viability (NCI-H2342; first compound 8 µM) was 0.516, the relative viability (NCI-H2347; first compound 0.08 µM) was 0.308 and the relative viability (NCI-H2347; first compound 0.8 µM) was 0.386. It also gave a relative viability (NCI-H2347; first compound 2.53 µM) of 0.345, a relative viability (NCI-H2347; first compound 8 µM) of 0.377 and a relative viability (NCI-H23; first compound 0.08 µM) of 0.771. The relative viability (NCI-H23; first compound 0.8 µM) was 0.753, the relative viability (NCI-H23; first compound 2.53 µM) was 0.882 and the relative viability (NCI-H23; first compound 8 µM) was 0.693. It also gave a relative viability (NCI-H322M; first compound 0.08 µM) of 0.757, a relative viability (NCI-H322M; first compound 0.8 µM) of 0.8 and a relative viability (NCI-H322M; first compound 2.53 µM) of 0.913. For the same compound, the relative viability (NCI-H322M; first compound 8 µM) was 0.677, the relative viability (NCI-H520; first compound 0.08 µM) was 0.632 and the relative viability (NCI-H520; first compound 0.8 µM) was 0.352. The relative viability (NCI-H520; first compound 2.53 µM) was 0.742, the relative viability (NCI-H520; first compound 8 µM) was 0.338 and the relative viability (NCI-H647; first compound 0.08 µM) was 0.632. It also gave a relative viability (NCI-H647; first compound 0.8 µM) of 0.721, a relative viability (NCI-H647; first compound 2.53 µM) of 0.546 and a relative viability (NCI-H647; first compound 8 µM) of 0.472. The relative viability (NCI-H661; first compound 0.08 µM) was 0.287, the relative viability (NCI-H661; first compound 0.8 µM) was 0.312 and the relative viability (NCI-H661; first compound 2.53 µM) was 0.276. For the same compound, the relative viability (NCI-H661; first compound 8 µM) was 0.261, the relative viability (NCI-H838; first compound 0.08 µM) was 0.641 and the relative viability (NCI-H838; first compound 0.8 µM) was 0.879. For the same compound, the relative viability (NCI-H838; first compound 2.53 µM) was 0.543 and the relative viability (NCI-H838; first compound 8 µM) was 0.516.
